Reference: article PMC12410356 (International Journal for Parasitology: Drugs and Drug …, 2025)

Experiments:
[1] = system: E. multilocularis metacestode vesicles; test: Phosphoglucose isomerase (PGI) release assay (damage-marker release) on metacestode vesicles; format: cell-based, Echinococcus multilocularis; details: 10 μM; for PGI d5 (relative PGI release): 5 days; for PGI d12 (relative PGI release): 12 days
Experimental: In order to quantify the drug-induced damage on whole metacestode vesicles, phosphoglucose isomerase (PGI) assay was performed as described previously ([Stadelmann et al., 2010]) with few adaptations published recently ([Kaethner et al., 2023]). In short, 8 to 12 weeks-old metacestode vesicles were purified using 2 % sucrose with subsequent washes in PBS. Metacestode vesicles were diluted in two volumes of DMEM without phenol red containing penicillin (100 U/mL) and streptomycin (100 μg/mL). […] 0.1 % DMSO was used as a negative solvent control and 0.1 % Triton X-100 was used as a positive total damage control. Metacestode vesicles were incubated under a humid, 5 % CO2 atmosphere at 37 °C. After five and twelve days, supernatant was taken and pictures were made using a Nikon SMZ18 stereo microscope (Nikon, Basel, Switzerland) at 7.5 × magnification. PGI activity in the supernatants was measured on a HIDEX Sense microplate reader (Hidex, Turku, Finland). The corresponding values of the DMSO controls were subtracted from the values of the compounds and then PGI activity was calculated relative to 0.1 % Triton X-100. […] IC50 values were calculated applying the 3 parameter Weibull type 1 in R for each of the three independent experiments ([Ritler et al., 2020]).

[2] = system: E. multilocularis metacestode vesicles; test: Metacestode vesicle viability assay (ATP, CellTiter-Glo); format: cell-based, Echinococcus multilocularis; details: 10 μM
Experimental: Viability was assessed after 12 days using the same metacestode vesicles as for the PGI release assay. Triton X-100 was added to each well to a final concentration of 0.1 %. Subsequently the metacestode vesicles were broken mechanically and 50 μL of the supernatant was mixed with 50 μL of CellTiter-Glo® buffer (Promega, Dübendorf, Switzerland). Measurements were performed on a HIDEX Sense microplate reader.

[3] = overview screen, singlets, relative to 0.1 % Triton X-100, DMSO subtracted
[4] = overview screen, singlets, 12 days, relative to DMSO control
[5] = confirmation screen, triplicates, mean
[6] = confirmation screen, triplicates, mean, 12 days

| SMILES | PGI d5 (relative PGI release) [1, 3] | PGI d12 (relative PGI release) [1, 3] | activity in the PGI release assay (in words) ([1]; overview screen, twelve days, cut-off PGI release ≥20 %) | viability at 10 µM ([2]; Echinococcus multilocularis, 288 h, overview screen, singlets, 12 days, relative to DMSO control, read-out: Viability d12 (relative viability)) | effect on metacestode vesicle viability (in words) ([2]; overview screen, twelve days, cut-off viability ≤30 %) | Viability d12 (relative viability) [2, 4] | PGI d5 (relative PGI release) [1, 5] | PGI d12 (relative PGI release) [1, 5] | Viability d12 (relative viability) [2, 6] |
| --- | --- | --- | --- | --- | --- | --- | --- | --- | --- |
| N#Cc1c(F)c(Cl)c(NCc2ccccc2)c(C#N)c1F [MMV1582496, 4-(benzylamino)-5-chloro-2,6-difluorobenzene-1,3-dicarbonitrile] | 23.5135% | 27.7197% | active in the PGI assay after twelve days | 121% | did not reduce the metacestode vesicle viability | – | – | – | – |
| Clc1cccc(-c2nnc(-c3ccccc3)o2)c1 [MMV141011] | -1.462% | -13.7141% | – | – | – | 31.8959% | – | – | – |
| Cc1onc(-c2ccccc2)c1-c1ccc(S(N)(=O)=O)cc1 [MMV002260] | 0.1005% | -4.614% | – | – | – | 84.2251% | – | – | – |
| O=C(O)c1ccccc1Sc1ncnc2sc3c(c12)CCC3 [MMV1579878] | -1.729% | -24.5374% | – | – | – | 137.353% | – | – | – |
| Cc1nc(-c2ccc(C3N(C)c4ccc(F)cc4C(=O)N3c3ccccc3)s2)cs1 (centres unmarked) [MMV1582492] | -1.6173% | -12.6909% | – | – | – | 101.198% | – | – | – |
| CC1=C(/C=C/C(C)=C/C=C/C(C)=C/C(=O)Nc2ccc(O)cc2)C(C)(C)CCC1 [MMV001793] | 0.1304% | -19.3598% | – | – | – | 54.0144% | – | – | – |
| CN(C)CC(=O)Nc1ccc2[nH]c(=O)c3ccccc3c2c1 [MMV1580480] | -0.09241% | -0.9318% | – | – | – | 169.884% | – | – | – |
| C/C(=N\NC(=O)C1CC1c1ccccc1)c1ccc(NC(=O)c2ccco2)cc1 (centres unmarked) [MMV1580487] | -1.203% | -0.8271% | – | – | – | 105.695% | – | – | – |
| Nc1nc(N)c2c(Sc3ccccc3)cccc2n1 [MMV021759] | -5.79% | -12.5973% | – | – | – | 37.4067% | – | – | – |
| O=C(NNC(=S)Nc1ccc(Cl)cc1)c1ccncc1 [MMV1782227] | 3.665% | 72.3585% | – | – | – | 12.3576% | 0.0543% | -0.30% | 83.65% |
| O=P(O)(O)C(CCCc1cccc(Oc2ccccc2)c1)S(=O)(=O)O (centres unmarked) [MMV1782215] | 0.5378% | 19.5176% | – | – | – | 65.7947% | – | – | – |
| Cc1c(OCC(F)(F)F)ccnc1C[S+]([O-])c1nc2ccccc2[nH]1 (centres unmarked) [MMV001438] | 1.578% | -2.884% | – | – | – | 96.7343% | – | – | – |
| CC(C)(C)NC(=O)N[C@H](C(=O)N1C[C@H]2[C@@H]([C@H]1C(=O)NC(CC1CCC1)C(=O)C(N)=O)C2(C)C)C(C)(C)C (some centres unmarked) [MMV1580497] | 0.3266% | 69.2218% | – | – | – | 40.5469% | – | – | – |
| Oc1ccc(NCc2ccccc2OCc2ccccc2)cc1 [MMV1580504] | -1.084% | -20.6703% | – | – | – | 79.6345% | – | – | – |
| COc1ccc(OCc2ccc(COc3c(Cl)cccc3Cl)cc2)c(Cl)c1 [MMV1580485] | -0.2661% | -0.7114% | – | – | – | 122.098% | – | – | – |
| CC(C)(C)c1ccc(OCCn2nc(C(=O)O)c3ccccc3c2=O)cc1 [MMV1634387] | -1.414% | -12.4336% | – | – | – | 144.45% | – | – | – |
| CCC(C)NCC(O)Cn1c2ccc(Cl)cc2c2cc(Cl)ccc21 (centres unmarked) [MMV1578570] | 90.467% | 70.4859% | – | – | – | 22.9025% | -0.08% | 0.27% | 94.06% |
| C[C@H](Cn1cnc2c(N)ncnc21)OCP(=O)(O)O [MMV1580478] | 0.0562% | -19.3802% | – | – | – | 132.93% | – | – | – |

| SMILES | PGI d5 (relative PGI release) [1, 3] | PGI d12 (relative PGI release) [1, 3] | activity in the PGI release assay (in words) ([1]; overview screen, twelve days, cut-off PGI release ≥20 %) | viability at 10 µM ([2]; Echinococcus multilocularis, 288 h, overview screen, singlets, 12 days, relative to DMSO control, read-out: Viability d12 (relative viability)) | effect on metacestode vesicle viability (in words) ([2]; overview screen, twelve days, cut-off viability ≤30 %) | Viability d12 (relative viability) [2, 4] | PGI d5 (relative PGI release) [1, 5] | PGI d12 (relative PGI release) [1, 5] | Viability d12 (relative viability) [2, 6] |
| --- | --- | --- | --- | --- | --- | --- | --- | --- | --- |
| CCC(C)(C)c1ccc(CC(C)CN2C[C@@H](C)O[C@@H](C)C2)cc1.Cl (some centres unmarked) [MMV1634358] | 0.7921% | -20.4097% | – | – | – | 23.2957% | – | – | – |
| NC[C@H]1O[C@H](O[C@H]2[C@H](O)[C@@H](O[C@H]3O[C@H](CO)[C@@H](O)[C@H](N)[C@H]3O)[C@H](N)C[C@@H]2N)[C@H](N)C[C@@H]1O [MMV002459] | -1.087% | -12.65% | – | – | – | 35.1523% | – | – | – |
| CN(C)c1[nH]c(=O)ncc1F [MMV1782223] | -2.446% | -24.7543% | – | – | – | 98.8605% | – | – | – |
| CC(C)Nc1ncnc2c1cnn2-c1ccc(Cl)cc1 [MMV108465] | -2.878% | 28.117% | – | – | – | 65.6735% | – | – | – |
| CCNC(=O)Nc1cn2c(-c3ncc(CC)cn3)cc(-c3cccnc3)cc2n1 [MMV1782403] | -2.559% | 16.0574% | – | – | – | 142.751% | – | – | – |
| CCC(CC)[C@H](NC(C)=O)[C@@H]1[C@H](O)[C@@H](C(=O)O)C[C@H]1NC(=N)N [MMV1593511] | 0.2364% | -10.4107% | – | – | – | 73.923% | – | – | – |
| COc1cc(C2C3=C(CC(C)(C)CC3=O)Nc3ccccc3N2C(C)=O)ccc1OCc1ccccc1 (centres unmarked) [MMV1634557] | -2.659% | -23.764% | – | – | – | 141.611% | – | – | – |
| Cc1ccc(C)c(OCCCCCCN2C[C@H](O)[C@@H](O)[C@H](O)[C@H]2CO)c1 [MMV1634401] | 8.592% | 62.8936% | – | – | – | 26.5643% | 1.51% | 2.13% | 146.24% |
| O=C(CCCC(F)(F)F)N1CCC(c2nc(-c3nccs3)no2)CC1 [MMV1582491] | 0.6914% | 59.8611% | – | – | – | 18.4528% | -0.08% | -0.04% | 57.90% |
| C[C@@H](NC(=O)c1cccc(-c2cnc(-c3cc4ccccc4cn3)[nH]2)c1)c1ccc(F)cc1 [MMV1782211] | 2.451% | 6.1027% | – | – | – | 82.804% | – | – | – |
| O=C(NO)C1(CS(=O)(=O)c2ccc(Oc3ccc(Cl)cc3)cc2)CCOCC1 [MMV690706] | 0.06885% | -1.025% | – | – | – | 178.089% | – | – | – |
| COc1ccc(CNC(=O)C(NS(=O)(=O)c2ccc3nc(C)sc3c2)C(C)C)cc1 (centres unmarked) [MMV303733] | -2.8306% | -9.3435% | – | – | – | 97.8993% | – | – | – |
| O=C(Nc1ccccc1)N(Cc1cc(Br)ccc1O)c1ccc(F)cc1 [MMV1581552] | -0.185% | -25.2603% | – | – | – | 81.6601% | – | – | – |
| COc1c(F)c(F)cc2c(=O)c(C(=O)O)cn(C3CC3)c12 [MMV1480967] | 0.2423% | -3.0894% | – | – | – | 115.193% | – | – | – |
| CO[C@@]1(NC(=O)Cc2cccs2)C(=O)N2C(C(=O)O)=C(COC(N)=O)CS[C@@H]21 [MMV1578559] | -1.349% | -7.289% | – | – | – | 75.9823% | – | – | – |
| CC(C)Cn1c(=O)n(C)c(=O)c2c(-c3cncn3C)n(Cc3cccc4ccccc34)nc21 [MMV1581559] | -0.3605% | 37.1265% | – | – | – | 31.7083% | – | – | – |
| CN1c2ccc(Cl)cc2N(c2ccccc2)C(=O)c2cn(Cc3ccc(CN4CCOCC4)cc3)nc21 [MMV1782222] | -0.005582% | 0.3517% | – | – | – | 123.597% | – | – | – |
| O=C(CSc1nnc(Br)n1-c1ccc(C2CC2)c2ccccc12)Nc1ccc(C(=O)O)cc1Cl [MMV1782213] | 1.533% | -0.7445% | – | – | – | 116.37% | – | – | – |
